Molecules are shown by their SMILES. A value given as a limit tells only on which side of the number the result lay.

The first assay has as its target T1, human PAH with the R408W mutation (Homo sapiens, UniProt P00439, R408W).
T1 construct: expressed in transfected cells
T1 sequence (P00439 1-452 R408W): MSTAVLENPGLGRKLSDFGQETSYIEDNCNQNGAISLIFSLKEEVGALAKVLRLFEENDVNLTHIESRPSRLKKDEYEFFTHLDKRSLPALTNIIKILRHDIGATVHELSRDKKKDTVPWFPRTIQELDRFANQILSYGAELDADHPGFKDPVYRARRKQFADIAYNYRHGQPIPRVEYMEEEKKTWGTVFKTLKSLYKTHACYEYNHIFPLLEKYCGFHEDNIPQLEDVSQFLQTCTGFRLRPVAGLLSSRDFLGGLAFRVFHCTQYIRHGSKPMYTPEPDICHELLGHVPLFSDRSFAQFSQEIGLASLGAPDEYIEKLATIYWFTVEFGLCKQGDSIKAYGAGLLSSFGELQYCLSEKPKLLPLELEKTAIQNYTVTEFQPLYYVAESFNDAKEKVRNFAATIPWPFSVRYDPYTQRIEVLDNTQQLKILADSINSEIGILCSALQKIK
The assay is described as follows: Cell Based Phenylalanine Flux Assay.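 Further: after compound treatment, cells received sepiapterin plus isotope-labelled Phenylalanine for 4 hours, then labelled Tyrosine in the medium was quantified, 10-point 2-fold dilution series run in duplicate.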 To be noted: A375 cells expressing R408W PAH; 24 hrs with compound, then 20 µM sepiapterin and 800 µM 13C9,15N-Phenylalanine for 4 hours; 13C-Tyrosine by LC-MS; average where tested multiple times; read-out: AC50.
As for `Cc1nnc(C(=O)N2CCc3[nH]cnc3C2c2cc3c(F)cccn3n2)o1` (stereo not drawn), the AC50 (as a rule, the midpoint of the concentration-response curve, whichever way the signal moves) was more than 5000 nM.
With `COc1cccn2nc(C3c4nc[nH]c4CCN3C(=O)c3nnc(C)o3)cc12` (stereo not drawn), the AC50 was more than 5000 nM.
Turning to `Cc1ccn2nc(C3c4nc[nH]c4CCN3C(=O)c3nnc(C(C)(C)C)o3)cc2c1` (stereo not drawn), the AC50 is 1000 to 5000 nM.
The same measure, in the same setting: next, `CN(C)Cc1ccc2c(C(=O)N3CCc4[nH]cnc4C3c3cc4cccc(Cl)n4n3)cnn2c1` (stereo not drawn): 1000 to 5000 nM; `O=C(C1CC1(F)F)N1CCc2[nH]cnc2C1c1cc2ccccn2n1` (stereo not drawn): 1000 to 5000 nM.
As to `Cc1c(-c2ncc(C(=O)N3CCc4[nH]cnc4C3c3cc4ccccn4n3)o2)cnn1C` (stereo not drawn), the AC50 was more than 5000 nM.
As for `CC(C)(F)c1nnc(N2CCc3[nH]cnc3C2c2cc3c(Cl)cccn3n2)o1` (stereo not drawn), the AC50 is more than 5000 nM.

The same assay, now with this note: A375 cells expressing human PAH R408W; 24 hrs compound incubation; 13C-Tyrosine by LC-MS; average where tested multiple times; read-out: AC50.
In the case of `O=C(c1ocnc1C1CC1)N1CCc2[nH]cnc2[C@H]1c1cc2c(C(F)(F)F)cccn2n1` [Example 2014, (S)-(4-cyclopropyloxazol-5-yl)(4-(4-(trifluoromethyl)pyrazolo[1,5-a]pyridin-2-yl)-1,4,6,7-tetrahydro-5H-imidazo[4,5-c]pyridin-5-yl)methanone], the AC50 was less than 500 nM.
With `O=C(c1nnc(-c2cnn(C(F)(F)F)c2)o1)N1CCc2[nH]cnc2[C@H]1c1cc2c(OC(F)F)cccn2n1` [Example 2458, (S)-(4-(4-(difluoromethoxy)pyrazolo[1,5-a]pyridin-2-yl)-6,7-dihydro-1H-imidazo[4,5-c]pyridin-5(4H)-yl)(5-(1-(trifluoromethyl)-1H-pyrazol-4-yl)-1,3,4-oxadiazol-2-yl)methanone], the AC50 lay within 1000 to 5000 nM.
Consider `Cc1c(-c2nnc(C(=O)N3CCc4[nH]cnc4[C@H]3c3cc4c(C5CC5)cccn4n3)o2)cnn1C` [Example 1898, (S)-(4-(4-cyclopropylpyrazolo[1,5-a]pyridin-2-yl)-1,4,6,7-tetrahydro-5H-imidazo[4,5-c]pyridin-5-yl)(5-(1,5-dimethyl-1H-pyrazol-4-yl)-1,3,4-oxadiazol-2-yl)methanone], for which the AC50 was less than 500 nM.
On the same count and under the same terms, the same measure for `O=C(c1nnc(-c2ncccn2)o1)N1CCc2[nH]cnc2[C@H]1c1cc2c(OC(F)(F)F)cccn2n1` [Example 2469, (S)-(5-(pyrimidin-2-yl)-1,3,4-oxadiazol-2-yl)(4-(4-(trifluoromethoxy)pyrazolo[1,5-a]pyridin-2-yl)-6,7-dihydro-1H-imidazo[4,5-c]pyridin-5(4H)-yl)methanone]: 1000 to 5000 nM; for `Cc1nc([C@H](C)O)oc1C(=O)N1CCc2[nH]cnc2[C@H]1c1cc2cccc(C(F)(F)F)n2n1` [Example 2422, (2-((S)-1-hydroxyethyl)-4-methyloxazol-5-yl)((S)-4-(7-(trifluoromethyl)pyrazolo[1,5-a]pyridin-2-yl)-6,7-dihydro-1H-imidazo[4,5-c]pyridin-5(4H)-yl)methanone]: 1000 to 5000 nM.
`Cc1cccn2nc([C@@H]3c4nc[nH]c4CCN3C(=O)c3cnc(-c4cnn(C)c4)o3)cc12` [Example 1960, (S)-(2-(1-methyl-1H-pyrazol-4-yl)oxazol-5-yl)(4-(4-methylpyrazolo[1,5-a]pyridin-2-yl)-1,4,6,7-tetrahydro-5H-imidazo[4,5-c]pyridin-5-yl)methanone]: the AC50 lay in the range of 500 to 1000 nM.
Still for that read-out and setting: next, `Cc1cccnc1-c1nnc(N2CCc3[nH]cnc3[C@H]2c2cc3c(C)cccn3n2)o1` [Example 2269, (S)-2-(4-(4-methylpyrazolo[1,5-a]pyridin-2-yl)-1,4,6,7-tetrahydro-5H-imidazo[4,5-c]pyridin-5-yl)-5-(3-methylpyridin-2-yl)-1,3,4-oxadiazole]: less than 500 nM; `FC(F)c1nnc(N2CCc3[nH]cnc3[C@H]2c2cc3cccc(C(F)F)n3n2)o1` [Example 2221, (S)-2-(difluoromethyl)-5-(4-(7-(difluoromethyl)pyrazolo[1,5-a]pyridin-2-yl)-1,4,6,7-tetrahydro-5H-imidazo[4,5-c]pyridin-5-yl)-1,3,4-oxadiazole]: 1000 to 5000 nM; `Fc1cccc(N2CCc3[nH]cnc3[C@H]2c2cc3ccccn3n2)n1` [Example 2135, (S)-5-(6-fluoropyridin-2-yl)-4-(pyrazolo[1,5-a]pyridin-2-yl)-4,5,6,7-tetrahydro-1H-imidazo[4,5-c]pyridine]: less than 500 nM.

The assay is the same for the next values; noted with them: A375 cells expressing human R408W PAH; 24 hrs compound incubation; 13C-Tyrosine by LC-MS; average where tested multiple times; read-out: AC50.
Turning to `O=C(c1nnc(C2CCC2)o1)N1CCc2[nH]cnc2[C@H]1c1cc2ccccn2n1` [Example 1514, (S)-(5-cyclobutyl-1,3,4-oxadiazol-2-yl)(4-(pyrazolo[1,5-a]pyridin-2-yl)-6,7-dihydro-1H-imidazo[4,5-c]pyridin-5(4H)-yl)methanone], the AC50 was less than 500 nM.
Same read-out and setting: the same measure for `O=C(c1ocnc1C(F)F)N1CCc2[nH]cnc2[C@@H]1c1cc2cccc(F)n2n1` [Example 1203, (R)-(4-(difluoromethyl)oxazol-5-yl)(4-(7-fluoropyrazolo[1,5-a]pyridin-2-yl)-6,7-dihydro-1H-imidazo[4,5-c]pyridin-5(4H)-yl)methanone]: 1000 to 5000 nM; for `O=C(c1nnc(-c2ncccc2F)o1)N1CCc2[nH]cnc2[C@H]1c1cc2c(Cl)cccn2n1` [Example 1295, (S)-(4-(4-chloropyrazolo[1,5-a]pyridin-2-yl)-6,7-dihydro-1H-imidazo[4,5-c]pyridin-5(4H)-yl)(5-(3-fluoropyridin-2-yl)-1,3,4-oxadiazol-2-yl)methanone]: less than 500 nM.
As to `Cc1cccc(-c2nnc(C(=O)N3CCc4[nH]cnc4[C@@H]3c3cc4cccc(C(F)(F)F)n4n3)o2)n1` [Example 1401, (R)-(5-(6-methylpyridin-2-yl)-1,3,4-oxadiazol-2-yl)(4-(7-(trifluoromethyl)pyrazolo[1,5-a]pyridin-2-yl)-6,7-dihydro-1H-imidazo[4,5-c]pyridin-5(4H)-yl)methanone], the AC50 was 1000 to 5000 nM.
Consider `O=C(c1cncs1)N1CCc2[nH]cnc2[C@@H]1c1cc2ccccn2n1` [Example 603, (R)-(4-(pyrazolo[1,5-a]pyridin-2-yl)-6,7-dihydro-1H-imidazo[4,5-c]pyridin-5(4H)-yl)(thiazol-5-yl)methanone], for which the AC50 lay within 1000 to 5000 nM.
In the case of `FC(F)c1nnc(N2CCc3[nH]cnc3[C@H]2c2cc3c(C(F)(F)F)cccn3n2)o1` [Example 1735, (S)-2-(difluoromethyl)-5-(4-(4-(trifluoromethyl)pyrazolo[1,5-a]pyridin-2-yl)-6,7-dihydro-1H-imidazo[4,5-c]pyridin-5(4H)-yl)-1,3,4-oxadiazole], the AC50 was less than 500 nM.
For the compound `Cc1cccc2cc([C@@H]3c4nc[nH]c4CCN3C(=O)c3nnc(-c4cnccn4)o3)nn12` [Example 1339, (S)-(4-(7-methylpyrazolo[1,5-a]pyridin-2-yl)-6,7-dihydro-1H-imidazo[4,5-c]pyridin-5(4H)-yl)(5-(pyrazin-2-yl)-1,3,4-oxadiazol-2-yl)methanone], the AC50 was less than 500 nM.
Same read-out and setting: next, `Cc1c(-c2nnc(C(=O)N3CCc4[nH]cnc4[C@H]3c3cc4c(F)cccn4n3)o2)cnn1C` [Example 954, (S)-(5-(1,5-dimethyl-1H-pyrazol-4-yl)-1,3,4-oxadiazol-2-yl)(4-(4-fluoropyrazolo[1,5-a]pyridin-2-yl)-6,7-dihydro-1H-imidazo[4,5-c]pyridin-5(4H)-yl)methanone]: less than 500 nM; `Cn1cc(-c2nnc(C(=O)N3CCc4[nH]cnc4[C@@H]3c3cc4c(Cl)cccn4n3)o2)cn1` [Example 689, (R)-(4-(4-chloropyrazolo[1,5-a]pyridin-2-yl)-6,7-dihydro-1H-imidazo[4,5-c]pyridin-5(4H)-yl)(5-(1-methyl-1H-pyrazol-4-yl)-1,3,4-oxadiazol-2-yl)methanone]: more than 5000 nM.
On to `Cc1cccn2nc([C@H]3c4nc[nH]c4CCN3C(=O)c3nnc(-c4cnn(C)c4)o3)cc12` [Example 749, (R)-(5-(1-methyl-1H-pyrazol-4-yl)-1,3,4-oxadiazol-2-yl)(4-(4-methylpyrazolo[1,5-a]pyridin-2-yl)-6,7-dihydro-1H-imidazo[4,5-c]pyridin-5(4H)-yl)methanone], for which the AC50 is more than 5000 nM.
On to `O=C(CC1(O)CCC1)N1CCc2[nH]cnc2[C@H]1c1cc2ccccn2n1` [Example 634, (S)-2-(1-hydroxycyclobutyl)-1-(4-(pyrazolo[1,5-a]pyridin-2-yl)-6,7-dihydro-1H-imidazo[4,5-c]pyridin-5(4H)-yl)ethanone], for which the AC50 is less than 500 nM.
As for `O=C(c1nnc(-c2ncccc2F)o1)N1CCc2[nH]cnc2[C@H]1c1cc2c(OC(F)(F)F)cccn2n1` [Example 1679, (S)-(5-(3-fluoropyridin-2-yl)-1,3,4-oxadiazol-2-yl)(4-(4-(trifluoromethoxy)pyrazolo[1,5-a]pyridin-2-yl)-6,7-dihydro-1H-imidazo[4,5-c]pyridin-5(4H)-yl)methanone], the AC50 was less than 500 nM.
Same read-out and setting: next, `COCCc1ccc2c(C(=O)N3CCc4[nH]cnc4[C@H]3c3cc4c(F)cccn4n3)cnn2c1` [Example 1796, (S)-(4-(4-fluoropyrazolo[1,5-a]pyridin-2-yl)-6,7-dihydro-1H-imidazo[4,5-c]pyridin-5(4H)-yl)(6-(2-methoxyethyl)pyrazolo[1,5-a]pyridin-3-yl)methanone]: 500 to 1000 nM.
In the case of `Cc1cccc2cc([C@@H]3c4nc[nH]c4CCN3c3nnc(-c4ccccn4)o3)nn12` [Example 1640, (S)-2-(4-(7-methylpyrazolo[1,5-a]pyridin-2-yl)-6,7-dihydro-1H-imidazo[4,5-c]pyridin-5(4H)-yl)-5-(pyridin-2-yl)-1,3,4-oxadiazole], the AC50 is 500 to 1000 nM.

For the origin of these results see patent US20230365592A1 (Agios Pharmaceuticals, Inc., priority 2022, published 2023).
